{"source": "paper PMC11242946", "about": "“Inhibition of ACE2–S Protein Interaction by a Short Functional Peptide with a Boomerang Structure” (Molecules, 2024)", "key": {"ACE2": {"test_system": "ACE2", "conditions": "short peptide; ref not given (\"It was reported\"); cited from earlier work", "excerpt": "To date, only a small number of drug design studies have focused on the SARS-CoV-2 receptor, with a particular emphasis on ACE2 antagonists. Exogenous proteins have disadvantages such as low efficiency in drug delivery and immunogenicity, whereas small-molecule ligands pose limitations such as challenges for manufacturing and increased toxicity. Thus, direct interception of the amino acids of ACE2 could be a simple and effective method. The length of the ACE2-derived peptide (CSNP1) is 16 amino acids."}, "[1]": {"target": "ACE2–S protein interaction (Vero E6 cells) (Chlorocebus aethiops, UniProt Q1LZX8)", "experiment": "Inhibition of S1 protein-ACE2 interaction, flow cytometry, Vero E6", "type": "cell-based, monkey", "conditions": "K5 1 h pre-incubation, S1 protein 10 μg/mL 1 h"}, "A549 cells": {"test_system": "A549 cells", "experiment": "MTT cytotoxicity, A549", "type": "cell-based, human", "conditions": "24 h; for cell viability: MTT, % of untreated cells", "method": "(§1) Vero E6 and A549 cells were cultured in DMEM containing 10% FBS and 5% CO2 at 37 degrees centigrade (°C). The medium was renewed once every three days. The cells were passaged when they attained confluence.\n(§2) The cytotoxicity of the functional peptide was assessed using the MTT test. The test cells were seeded onto 96-well plates and grown overnight. The functional peptide K5 was introduced at concentrations of 0.1, 1, 10, and 100 μM for a 24 h incubation. MTT was then added, and cells were incubated for an additional 2 h. The medium was removed and replaced with 100 μL of DMSO. A measurement of absorbance was conducted at 492 nm (OD492) using a microplate reader (EnSpire, Cleveland, OH, USA). Cells without treatment were set as blanks, and the results are expressed as a percentage of the untreated cells."}, "Vero E6 cells [2]": {"test_system": "Vero E6 cells", "experiment": "MTT cytotoxicity, Vero E6", "type": "cell-based, monkey", "conditions": "24 h; for cell viability: MTT, % of untreated cells", "method": "as §1, §2"}, "Vero E6 cells [3]": {"test_system": "Vero E6 cells", "experiment": "Cellular adsorption of FITC-labeled peptide (fluorescence microscopy)", "type": "cell-based, monkey", "conditions": "cells treated solely with FITC", "method": "The cellular adsorption behaviors of K5 were examined using FITC-labeled peptide. Vero E6 cells were incubated in 24-well plates in medium containing 100 μM of FITC-labeled peptide for two different durations: 1 min and 1 h. Subsequently, the cells were washed three times using a PBS solution containing heparin, then stained with DAPI for 30 min. Finally, they were fixed using a 4% PFA solution and then observed using an inverted fluorescence microscope manufactured by Zeiss in Oberkochen, Germany. The control group consisted of cells with only functional peptides added or only FITC added."}}, "note": "No end group written: not given here.", "data": [{"substance": "EDLFYQ [SAPs]", "values": [{"measurement": "IC50", "setting": "ACE2", "value": "at the mM level"}]}, {"substance": "KYPAY [K5, KYPAY]", "values": [{"measurement": "MFI reduction", "setting": "[1]; FBS, 10 μM", "value": 50, "unit": "%"}, {"measurement": "MFI decrease", "setting": "[1]; FBS, 100 μM", "value": 70, "unit": "%"}, {"measurement": "MFI decrease", "setting": "[1]; PBS, 1 μM", "value": "approximately 25%"}, {"measurement": "inhibition at 100 µM", "setting": "[1]; Vero C1008, PBS, 100 μM, read-out: MFI decrease (inhibition)", "value": 78, "unit": "%"}, {"measurement": "cell viability", "setting": "A549 cells; 0.1 μM", "value": 93, "unit": "%"}, {"measurement": "cell viability", "setting": "A549 cells; 1 μM", "value": 100, "unit": "%"}, {"measurement": "cell viability", "setting": "A549 cells; 10 μM", "value": 103, "unit": "%"}, {"measurement": "cell viability", "setting": "A549 cells; 100 μM", "value": 101, "unit": "%"}, {"measurement": "change in cell viability / toxicity", "setting": "A549 cells; 0.1-100 μM, physiological pH, A549", "value": "no discernible change in cell viability"}, {"measurement": "cell viability", "setting": "Vero E6 cells [2]; 0.1 μM", "value": 108, "unit": "%"}, {"measurement": "cell viability", "setting": "Vero E6 cells [2]; 1 μM", "value": 105, "unit": "%"}, {"measurement": "cell viability", "setting": "Vero E6 cells [2]; 10 μM", "value": 96, "unit": "%"}, {"measurement": "cell viability", "setting": "Vero E6 cells [2]; 100 μM", "value": 94, "unit": "%"}, {"measurement": "change in cell viability / toxicity", "setting": "Vero E6 cells [2]; 0.1-100 μM, physiological pH, Vero E6", "value": "no discernible change in cell viability"}]}, {"substance": "fluorescein isothiocyanate [FITC]", "values": [{"measurement": "cellular adsorption (fluorescence), FITC alone", "setting": "Vero E6 cells [3]", "value": "did not exhibit any fluorescence"}]}]}
